In patent publication US20100267561A1, “HERBICIDAL PYRIDAZINONE DERIVATIVES” (priority 2007, published 2010):

Columns and labels:
Assay in all cases: Test B flooded paddy test plant response
Format in all cases: in vivo
[1] = test system: ducksalad (Heteranthera limosa)
How it was run: (§1)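 2-leaf plants; pots flooded 3 cm above soil; compound added to paddy water; depth maintained. Greenhouse 13–15 d. Visual rating vs controls, 0 (no effect) to 100 (complete control); dash = no result.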

rice (Oryza sativa) = test system: rice (Oryza sativa)
How it was run: as §1

[2] = test system: umbrella sedge (Cyperus difformis)
How it was run: as §1

[3] = Flood (flooded paddy test), 62 g ai/ha, scale 0 to 100, 0 no effect, 100 complete control
[4] = Flood (flooded paddy test), 125 g ai/ha, scale 0 to 100, 0 no effect, 100 complete control
[5] = Flood (flooded paddy test), 250 g ai/ha, scale 0 to 100, 0 no effect, 100 complete control
[6] = Flood, 31 g ai/ha, scale 0 to 100

Compound | Plant response rating, Ducksalad [1, 3] | Plant response rating, Ducksalad [1, 4] | Plant response rating, Ducksalad [1, 5] | Plant response rating, Ducksalad [1, 6] | Plant response rating, Rice (rice (Oryza sativa); [3]) | Plant response rating, Rice (rice (Oryza sativa); [4]) | Plant response rating, Rice (rice (Oryza sativa); [5]) | Plant response rating, Rice (rice (Oryza sativa); [6]) | Plant response rating, Sedge, Umbrella [2, 3] | Plant response rating, Sedge, Umbrella [2, 4] | Plant response rating, Sedge, Umbrella [2, 5] | Plant response rating, Sedge, Umbrella [2, 6] | further results
4-[3-(4-chlorophenyl)-5-methyl-1H-pyrazol-3-yl]-5-hydroxy-2-methyl-3(2H)-pyridazinone [Compound 3] | 0 | 0 | 40 | 0 | 60 | 75 | 80 | 20 | 60 | 80 | 80 | 60 | 
Cc1cc(-c2ccc(C(F)(F)F)cc2)nn1-c1c(O)cnn(C)c1=O [Compound 1, 5-hydroxy-2-methyl-4-[5-methyl-3-[4-(trifluoromethyl)phenyl]-1H-pyrazol-1-yl]-3(2H)-pyridazinone] |  |  |  |  |  |  |  |  |  |  |  |  | pest or weed control at 62 g/ha ([1]; Heteranthera limosa, Flood (flooded paddy test), 62 g ai/ha, scale 0 to 100, 0 no effect, 100 complete control, read-out: Plant response rating, Ducksalad): 0%; pest or weed control at 125 g/ha ([1]; Heteranthera limosa, Flood (flooded paddy test), 125 g ai/ha, scale 0 to 100, 0 no effect, 100 complete control, read-out: Plant response rating, Ducksalad): 0%; pest or weed control at 250 g/ha ([1]; Heteranthera limosa, Flood (flooded paddy test), 250 g ai/ha, scale 0 to 100, 0 no effect, 100 complete control, read-out: Plant response rating, Ducksalad): 30%; pest or weed control at 31 g/ha ([1]; Heteranthera limosa, Flood, 31 g ai/ha, scale 0 to 100, read-out: Plant response rating, Ducksalad): 0%; plant injury at 62 g/ha (rice (Oryza sativa); Oryza sativa, Flood (flooded paddy test), 62 g ai/ha, scale 0 to 100, 0 no effect, 100 complete control, read-out: Plant response rating, Rice): 0%; plant injury at 125 g/ha (rice (Oryza sativa); Oryza sativa, Flood (flooded paddy test), 125 g ai/ha, scale 0 to 100, 0 no effect, 100 complete control, read-out: Plant response rating, Rice): 0%; plant injury at 250 g/ha (rice (Oryza sativa); Oryza sativa, Flood (flooded paddy test), 250 g ai/ha, scale 0 to 100, 0 no effect, 100 complete control, read-out: Plant response rating, Rice): 50%; plant injury at 31 g/ha (rice (Oryza sativa); Oryza sativa, Flood, 31 g ai/ha, scale 0 to 100, read-out: Plant response rating, Rice): 0%; pest or weed control at 62 g/ha ([2]; Cyperus difformis, Flood (flooded paddy test), 62 g ai/ha, scale 0 to 100, 0 no effect, 100 complete control, read-out: Plant response rating, Sedge, Umbrella): 40%; pest or weed control at 125 g/ha ([2]; Cyperus difformis, Flood (flooded paddy test), 125 g ai/ha, scale 0 to 100, 0 no effect, 100 complete control, read-out: Plant response rating, Sedge, Umbrella): 40%; pest or weed control at 250 g/ha ([2]; Cyperus difformis, Flood (flooded paddy test), 250 g ai/ha, scale 0 to 100, 0 no effect, 100 complete control, read-out: Plant response rating, Sedge, Umbrella): 60%; pest or weed control at 31 g/ha ([2]; Cyperus difformis, Flood, 31 g ai/ha, scale 0 to 100, read-out: Plant response rating, Sedge, Umbrella): 0%
Cc1cc(-c2ccc(C(F)(F)F)cc2)nn1-c1c(OC(=O)C(C)(C)C)cnn(C)c1=O [Compound 2] | 0 | 0 | 40 | 0 | 15 | 15 | 45 | 0 | 50 | 60 |  | 0 | 
Cc1cc(-c2ccc(Br)cc2)nn1-c1c(O)cnn(C)c1=O [Compound 4] | 75 | 85 | 85 | 0 | 40 | 70 | 80 | 15 | 60 | 90 | 100 | 40 | 
Cc1cc(-c2ccc(Br)cc2)nn1-c1c(OC(=O)OC(C)C)cnn(C)c1=O [Compound 6] | 50 | 60 | 70 | 40 | 30 | 80 | 90 | 20 | 70 | 85 | 95 | 30 | 
Cn1ncc(O)c(-c2nn(-c3ccc(Cl)cc3)cc2Br)c1=O [Compound 31] | 0 | 0 | 0 | 0 | 0 | 0 | 0 | 0 | 0 | 0 | 0 | 0 | 
Cc1cc(-c2ccc(Cl)cc2)nn1-c1c(OS(C)(=O)=O)cnn(C)c1=O [Compound 36] | 0 | 0 | 0 | 0 | 0 | 0 | 0 | 0 | 0 | 0 | 0 | 0 | 
CCc1cc(-c2ccc(Cl)cc2)nn1-c1c(OS(C)(=O)=O)cnn(C)c1=O [Compound 39] | 0 | 0 | 80 | 0 | 0 | 50 | 80 | 0 | 0 | 0 | 85 | 0 | 
CCc1cc(-c2ccc(Cl)cc2)nn1-c1c(OC(=O)C(C)(C)C)cnn(C)c1=O [Compound 40] | 0 | 0 | 0 | 0 | 40 | 70 | 80 | 35 | 0 | 0 | 0 | 0 | 
CCc1cc(-c2ccc(Br)cc2)nn1-c1c(O)cnn(C)c1=O [Compound 61] | 0 | 0 | 70 | 0 | 0 | 15 | 60 | 0 | 0 | 0 | 30 | 0 | 
CCc1cc(-c2ccc(C(F)(F)F)cc2)nn1-c1c(O)cnn(CC)c1=O [Compound 67] | 0 | 0 | 75 | 0 | 0 | 0 | 15 | 0 | 0 | 0 | 0 | 0 | 
COCc1cc(-c2ccc(Br)cc2)nn1-c1c(O)cnn(C)c1=O [Compound 68] | 0 | 0 | 0 | 0 | 0 | 0 | 0 | 0 | 0 | 0 | 0 | 0 | 
Cc1cc(-c2ccc(Cl)cc2)nn1-c1c(OC(=S)N(C)C)cnn(C)c1=O [Compound 69] | 0 | 0 | 0 | 0 | 0 | 0 | 0 | 0 | 0 | 0 | 0 | 0 | 
